Results from patent US20090209046A1, “Neutral Pharmaceuticals” (priority 2006, published 2009).
Values after ≈ are worked out from the molar mass of the structure shown. Where two headings read alike, the source gives them in different places. Marks after values point to notes of the source that are not given here.

Experiments:
[1] = Measurement of P: partition coefficient in 1-octanol/water system; conditions: 25° C., observed, for aspirin and caffeine the parent drug itself
[2] = Measurement of solubility in water, octanol saturated water and water saturated octanol; conditions: for logSR (Swo/Sow): log solubility ratio; for logSR (Swo/Sow) / Sow / Swo / Sw: 25° C.; for Sow: solubility in octanol saturated water; for Swo: solubility in water saturated octanol; for Sw: solubility in water
Experimental: Solubilities were determined at 25° C. in water (Sw), octanol saturated water (Sow), water saturated octanol (Swo). An excess of the sample was added to 15 ml of each solvent and stirred vigorously at 25° C. for 8 hours. […] The supernatant was collected. The supernatant samples after appropriate dilutions with respective solvent were analyzed by UV spec using a standard plot of solute in the same medium. Solubility of copper acetate in water saturated octanol was determined by extracting 200 ml saturated wo solution into 20 ml ow.

[3] = Stability of mixed-ligand Cu(II) complexes in solution (ESI-MS, 1H DOSY NMR); format: physicochemical; conditions: 1H DOSY NMR in D2O, 298K
Experimental: NMR tubes with a 5-mm internal diameter were used. […] Diffusion coefficients were measured by incrementing the amplitude of the field gradient pulse over 32 steps (0.5-30 G/cm). The bipolar gradient duration and the diffusion time were optimized to 2.4 ms and 14.9 ms, respectively. The intensities were fitted to an exponential decay using the SimFit program within the Topspin software to provide estimates of the diffusion constant.
The formation of Cu(ASP)2(AL)2(H2O) is also observed by us from the ESI-MS of ASP-7 and ASP-8 in aqueous solution. Indeed, for mononuclear Cu(II) species, the coordination of anionic API and neutral AL to copper in solution has been confirmed by the mass spectra.
Since structures of binuclear Cu(II) complexes are analogous, as a model, ASP-3 was investigated by using NMR diffusion measurement for stability studies. Diffusion-Ordered Spectroscopy […]) methods^11 are based on pulsed-field gradient spin-echo NMR experiments. […] The small peak on the left at 8.160 ppm is assigned to one proton of 3-Br-Py by comparing the ^1H NMR spectra of ASP-3 and ASP-3/3-Br-Py mixture. Peaks in the range of 7-8 ppm are due to the peak overstocking of aspirin and 3-Br-Py aromatic protons. […] The diffusion coefficient for ASP-3 was 3.819×10^−9 m^2/s. […]

[4] = water, cited from earlier work

Compound	logP of complex [1]	logSR (Swo/Sow) [2]	Sow [2]	Swo [2]	Sw [2]	diffusion coefficient [3]	logP (physchem)	solubility thermodynamic at 8 h ([2]; octanol saturated water, 25 °C, water, thermodynamic from solid) [µg/mL]	Sw ([4]; from reference Koch et al. J. Pharm. Sci. 1978)	Sw ([4]; from MSDS)
CC(=O)Oc1ccccc1C(=O)[O-].CC(=O)Oc1ccccc1C(=O)[O-].CC(=O)Oc1ccccc1C(=O)[O-].CC(=O)Oc1ccccc1C(=O)[O-].[Cu+2].[Cu+2] [ASP-1, Cu2(ASP)4]	−0.2371(267)	−0.4847	2.981(3) mg/ml	0.9767(36) mg/ml	3.414(25) mg/ml					
CC(=O)Oc1ccccc1C(=O)[O-].CC(=O)Oc1ccccc1C(=O)[O-].CC(=O)Oc1ccccc1C(=O)[O-].CC(=O)Oc1ccccc1C(=O)[O-].CN(C)C=O.CN(C)C=O.[Cu+2].[Cu+2] [ASP-2, Cu2(ASP)4(DMF)2]	−0.3484(166)	−0.4873	4.493(4) mg/ml	1.463(26) mg/ml	3.092(33) mg/ml					
Brc1cccnc1.Brc1cccnc1.CC(=O)Oc1ccccc1C(=O)[O-].CC(=O)Oc1ccccc1C(=O)[O-].CC(=O)Oc1ccccc1C(=O)[O-].CC(=O)Oc1ccccc1C(=O)[O-].[Cu+2].[Cu+2] [ASP-3, Cu2(ASP)4(3-Br-Py)2]	0.1066(58)	−0.09583	1.566(5) mg/ml	1.256(15) mg/ml	1.564(3) mg/ml	3.819×10^−9 m^2/s				
CC(=O)Oc1ccccc1C(=O)[O-].CC(=O)Oc1ccccc1C(=O)[O-].CC(=O)Oc1ccccc1C(=O)[O-].CC(=O)Oc1ccccc1C(=O)[O-].[Cu+2].[Cu+2].c1ccc2ncccc2c1.c1ccc2ncccc2c1 [ASP-4, Cu2(ASP)4(Quinoline)2]	0.4772(140)	0.2133	3.342(3) mg/ml	5.460(23) mg/ml	2.729(1) mg/ml					
CC(=O)Oc1ccccc1C(=O)[O-].CC(=O)Oc1ccccc1C(=O)[O-].[Cu+2].c1ccncc1.c1ccncc1 [ASP-5, Cu(ASP)2(Pyridine)2]		−0.4770	3.629(24) mg/ml	1.210(47) mg/ml	3.425(21) mg/ml					
CC(=O)Oc1ccccc1C(=O)[O-].CC(=O)Oc1ccccc1C(=O)[O-].NC(=O)c1ccncc1.NC(=O)c1ccncc1.[Cu+2] [ASP-7, Cu(ASP)2(Isonicotinamide)2]	−0.4723(272)	−0.5333	5.654(20) mg/ml	1.673(9) mg/ml	9.259(5) mg/ml					
CC(=O)Oc1ccccc1C(=O)[O-].CC(=O)Oc1ccccc1C(=O)[O-].NC(=O)c1cccnc1.NC(=O)c1cccnc1.[Cu+2] [ASP-8, Cu(ASP)2(Nicotinamide)2]	−0.5257(136)	−0.6490	3.361(29) mg/ml	0.7541(97) mg/ml	4.417(50) mg/ml					
CC(=O)Oc1ccccc1C(=O)[O-].CC(=O)Oc1ccccc1C(=O)[O-].[Cu+2].c1ccc(-c2cccnc2)cc1.c1ccc(-c2cccnc2)cc1 [ASP-9, Cu(ASP)2(3-Phenyl-Pyridine)2]		0.4495	0.4085(17) mg/ml	1.150(20) mg/ml	0.5415(7) mg/ml					
CC(=O)Oc1ccccc1C(=O)O [Aspirin(ASP), acetylsalicylic acid, reference compound]		1.101		54.16(94) mg/ml			1.32	4300 (≈ 23.8 mM)	4.600^b mg/ml	
CC(=O)[O-].CC(=O)[O-].COc1cccc(OC)c1C(=O)[O-].COc1cccc(OC)c1C(=O)[O-].O.O.[Cu+2].[Cu+2] [MC-2, Cu2(CH3COO)2(DMB)2(H2O)2]	−1.496(15)	−1.428	15.64(14) mg/ml	0.5841(103) mg/ml	15.82(11) mg/ml					
COc1cccc(OC)c1C(=O)[O-].COc1cccc(OC)c1C(=O)[O-].COc1cccc(OC)c1C(=O)[O-].COc1cccc(OC)c1C(=O)[O-].O.O.[Cu+2].[Cu+2] [MC-3, Cu2(DMB)4(H2O)2]	−1.442(27)	−0.9168	31.97(19) mg/ml	3.872(125) mg/ml	33.61(21) mg/ml					
O.O.O=C(Oc1ccccc1C(=O)[O-])c1ccccc1O.O=C(Oc1ccccc1C(=O)[O-])c1ccccc1O.O=C(Oc1ccccc1C(=O)[O-])c1ccccc1O.O=C(Oc1ccccc1C(=O)[O-])c1ccccc1O.[Cu+2].[Cu+2] [SAS-1, Cu2(SAS)4(H2O)2]	0.06927(1394)	1.033	0.2962(10) mg/ml	3.200(5) mg/ml	0.2791(6) mg/ml					
Clc1cccnc1.Clc1cccnc1.O=C(Oc1ccccc1C(=O)[O-])c1ccccc1O.O=C(Oc1ccccc1C(=O)[O-])c1ccccc1O.O=C(Oc1ccccc1C(=O)[O-])c1ccccc1O.O=C(Oc1ccccc1C(=O)[O-])c1ccccc1O.[Cu+2].[Cu+2] [SAS-3, Cu2(SAS)4(3-Cl-Pyridine)2]		0.7472	0.1259(4) mg/ml	0.7034(61) mg/ml	0.1239(1) mg/ml					
O=C(Oc1ccccc1C(=O)[O-])c1ccccc1O.O=C(Oc1ccccc1C(=O)[O-])c1ccccc1O.O=C(Oc1ccccc1C(=O)[O-])c1ccccc1O.O=C(Oc1ccccc1C(=O)[O-])c1ccccc1O.[Cu+2].[Cu+2].c1ccc(Cc2ccncc2)cc1.c1ccc(Cc2ccncc2)cc1 [SAS-4, Cu2(SAS)4(4-Benzyl-Pyridine)2]		1.336	0.0153(3) mg/ml	0.3314(22) mg/ml	0.0134(3) mg/ml					
C1CCOC1.C1CCOC1.O=C(Oc1ccccc1C(=O)[O-])c1ccccc1O.O=C(Oc1ccccc1C(=O)[O-])c1ccccc1O.O=C(Oc1ccccc1C(=O)[O-])c1ccccc1O.O=C(Oc1ccccc1C(=O)[O-])c1ccccc1O.[Cu+2].[Cu+2].c1ccc(-c2ccncc2)cc1.c1ccc(-c2ccncc2)cc1 [SAS-5, Cu2(SAS)4(4-Phenyl-Pyridine)2(THF)2]	1.231(53)	1.593	0.0315(2) mg/ml	1.236(18) mg/ml	0.0303(3) mg/ml					
O=C(Oc1ccccc1C(=O)[O-])c1ccccc1O.O=C(Oc1ccccc1C(=O)[O-])c1ccccc1O.[Cu+2].c1ccncc1.c1ccncc1.c1ccncc1 [SAS-6, Cu(SAS)2(Pyridine)3]		0.7655	0.3291(8) mg/ml	1.918(5) mg/ml	0.4065(8) mg/ml					
Cc1ccncc1.Cc1ccncc1.O=C(Oc1ccccc1C(=O)[O-])c1ccccc1O.O=C(Oc1ccccc1C(=O)[O-])c1ccccc1O.[Cu+2] [SAS-8, Cu(SAS)2(4-Me-Pyridine)2]		0.9488	0.2174(10) mg/ml	1.932(23) mg/ml	0.2301(18) mg/ml					
CCc1ccncc1.CCc1ccncc1.O=C(Oc1ccccc1C(=O)[O-])c1ccccc1O.O=C(Oc1ccccc1C(=O)[O-])c1ccccc1O.[Cu+2] [SAS-9, Cu(SAS)2(4-Et-Pyridine)2]		1.115	0.1104(8) mg/ml	1.438(9) mg/ml	0.1143(2) mg/ml					
Cu2(CH3COO)4(H2O)2 [MC-1, reference compound]	−2.222(553)	−2.807		0.1161(438) mg/ml						72^a mg/ml
Cu(ASP)2(Isonicotinamide)2(AcCN)2 [ASP-6]	−0.4647(274)	−0.4980	5.767(7) mg/ml	1.832(17) mg/ml	9.315(10) mg/ml					
Cu(SAS)2(Isonicotinamide)2(AcCN)2/3 [SAS-7]	0.03802(967)	0.4241	0.2890(10) mg/ml	0.8344(165) mg/ml	0.3143(9) mg/ml					
